We go through two compounds from patent US20260294913A1, “COMBINATION THERAPY OF DACOMITINIB AND NINTEDANIB FOR PREVENTION OR TREATMENT OF PULMONARY FIBROSIS” (KOREA INSTITUTE OF RADIOLOGICAL & MEDICAL SCIENCES, priority 2023, published 2026).

The subject of this experiment is mice with radiation-induced pulmonary fibrosis. The experiment can be described thus: Inhibitory effect on radiation-induced pulmonary fibrosis in mice (micro-CT, H&E and Masson's Trichrome staining). Type of experiment: in vivo, C57BL/6 mice. Conditions: first dose 1 h prior to SBRT (90 Gy), two weeks after radiation, as compared to untreated group. How it is done: Seven-week-old male C57BL/6 mice were divided into groups receiving nintedanib, which is an FDA-approved pulmonary fibrosis inhibitor, dacomitinib, which is an EGFR TKI, and a combination thereof, and orally administered one hour prior to stereotactic body radiation therapy (SBRT) (90 Gy, 4 mm collimator). Two weeks after radiation, the degree of pulmonary fibrosis and the inhibitory effect on radiation-induced lung injury were observed.
The nintedanib group received 60 mg/kg daily, the dacomitinib group received 10 mg/kg daily, and the combination group received 60 mg/kg of nintedanib and 10 mg/kg of dacomitinib. All drugs were orally administered daily. In addition, to analyze the degree of inflammatory response and the degree of fibrosis, H&E staining and Masson's Trichrome staining were performed and the grade of pulmonary fibrosis and the degree of collagen deposition are graphically represented in FIG. 2.

As to `COc1cc2ncnc(Nc3ccc(F)c(Cl)c3)c2cc1NC(=O)/C=C/CN1CCCCC1` [dacomitinib, (E)-N-(4-((3-chloro-4-fluorophenyl)amino)-7-methoxyquinazolin-6-yl)-4-(piperidin-1-yl) but-2-enamide], the “degree of pulmonary fibrosis” value (dacomitinib alone, 10 mg/kg daily oral) is listed as “reduced fibrosis”.

`COC(=O)c1ccc2c(c1)NC(=O)/C2=C(\Nc1ccc(N(C)C(=O)CN2CCN(C)CC2)cc1)c1ccccc1` [nintedanib, methyl (3Z)-3-{[(4-(methyl[(4-methylpiperazin-1-yl)acetyl]amino}phenyl)amino](phenyl)methylidene)-2-oxo-2,3-dihydro-1H-indole-6-carboxylate]: the “degree of pulmonary fibrosis” value (nintedanib alone, 60 mg/kg daily oral) is on record as “reduced fibrosis”.
